Experimental findings from patent US10975071B2, “Inhibitors of KRAS G12C mutant proteins” (Araxes Pharma LLC, priority 2015, dated 2021) are described below.

The assay deals with T1, KRAS G12C 1-169, his-tagged protein, GDP-loaded (Homo sapiens, UniProt P01116, G12C).
T1 construct: KRAS G12C 1-169, his-tagged protein, GDP-loaded
T1 sequence (P01116 1-169 isoform P01116-2 G12C): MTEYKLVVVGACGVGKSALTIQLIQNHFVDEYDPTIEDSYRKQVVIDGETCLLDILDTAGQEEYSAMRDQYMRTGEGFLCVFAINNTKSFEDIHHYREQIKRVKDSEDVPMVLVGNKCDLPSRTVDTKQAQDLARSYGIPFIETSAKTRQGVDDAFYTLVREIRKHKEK
Put plainly: Biochemical assay: covalent binding to KRAS G12C measured by mass spectrometry. The protocol:
Test compounds are prepared as 10 mM stock solutions in DMSO (Fisher cat# BP-231-100). KRAS G12C 1-169, his-tagged protein, GDP-loaded is diluted to […] in buffer (20 mM Hepes, 150 mM NaCl, 1 mM MgCl2). Compounds are tested for activity as follows:
Compounds are diluted to 50× final test concentration in DMSO in 96-well storage plates. Compound stock solutions are vortexed before use and observed carefully for any sign of precipitation. Dilutions are as follow: • For 100 μM final compound concentration, compounds are diluted to 5000 μM (5 μl 10 mM compound stock +5 μl DMSO and mixed well by pipetting. • For 30 μM final compound concentration, compounds are diluted to 1500 μM (3 μl 10 mM compound stock +17 μl DMSO) and mixed well by pipetting. • For 10 μM final compound concentration, compounds are diluted to 500 μM (2 μl 10 mM compound stock +38 μl DMSO) and mixed well by pipetting. 49 μl of the stock protein solution is added to each well of a 96-well PCR plate (Fisher cat#1423027). […] of the diluted 50× compounds are added to appropriate wells in the PCR plate using 12-channel pipettor. Reactions are mixed carefully and thoroughly by pipetting up/down with a 200 μl multi-channel pipettor. The plate is sealed well with aluminum plate seal, and stored in drawer at room temperature for 24 hrs. 5 μl of 2% formic acid (Fisher cat# Al 117) in DI H2O is then added to each well followed by mixing with a pipette. The plate is then resealed with aluminum seal and stored on dry ice until analyzed as described below.
The above described assays are analyzed by mass spectrometry according to the following procedure:
The MS instrument is set to positive polarity, 2 GHz resolution, and low mass (1700) mode and allowed to equilibrate for 30 minutes. The instrument is then calibrated, switched to acquisition mode and the appropriate method loaded.
After another 30 minute equilibration time, a blank batch (i.e., buffer) is run to ensure equipment is operating properly. The samples are thawed at 37° C. for 10 minutes, briefly centrifuged, and transfer to the bench top. Wells Al and H12 are spiked with 1 uL 500 uM internal standard peptide, and the plates centrifuged at 2000×g for 5 minutes. The method is then run and masses of each individual well recorded.
The masses (for which integration data is desired) for each well are pasted into the platemap and exported from the analysis. Masses for the internal standards are exported as well. The data at 50 ppm is extracted for the +19 charge state, and identity of well Al is assigned using the internal standard spike and integrated. Peak data is exported as a TOF list and the above steps are repeated individually, for the +20, 21, 22, 23, 24, and 25 charge states.
`C=CC(=O)N1CCN(c2c(NC(C)=O)nc3cc(-c4c(F)cccc4OC)c(Cl)cn23)CC1` [Compound 21, N-(3-(4-acryloylpiperazin-1-yl)-6-chloro-7-(2-fluoro-6-methoxyphenyl)imidazo[1,2-a]pyridin-2-yl)acetamide]: the Binding % result was “+ (+ indicates binding activity up to 5)”.

Regarding `C=CC(=O)N1CCN(c2cnc3cc(-c4c(C)ccc5[nH]ncc45)c(Cl)cn23)CC1` [Compound 1, 1-(4-(6-chloro-7-(5-methyl-1H-indazol-4-yl)imidazo[1,2-a]pyridin-3-yl)piperazin-1-yl)prop-2-en-1-one], the Binding % entry is “++ (++ indicates binding activity greater than 5% and up to 50%)”. As to `C=CC(=O)N1CCN(C2=COC3C=C(c4c(O)cccc4F)C(Cl)=CC23)CC1` (stereo not drawn) [Compound 26, 1-(4-(5-chloro-6-(2-fluoro-6-hydroxyphenyl)-3a,7a-dihydrobenzofuran-3-yl)piperazin-1-yl)prop-2-en-1-one], the Binding % result is “+++ (+++ indicates binding activity 50% or greater)”. The result for `C=CC(=O)N1CCN(c2cnc3c(F)c(-c4c(O)cccc4F)c(Cl)cn23)CC1` [Compound 20, 1-(4-(6-chloro-8-fluoro-7-(2-fluoro-6-hydroxyphenyl)imidazo[1,2-a]pyridin-3-yl)piperazin-1-yl)prop-2-en-1-one] reads “+++ (+++ indicates binding activity 50% or greater)”.

In the case of `C=CC(=O)N1CCN(C2=NCC(=O)Nc3c2cc(Cl)c(-c2c(O)cccc2F)c3F)CC1` [Compound 25, 5-(4-acryloylpiperazin-1-yl)-7-chloro-9-fluoro-8-(2-fluoro-6-hydroxyphenyl)-1,3-dihydro-2H-benzo[e][1,4] diazepin-2-one], the Binding % entry is listed as “+ (+ indicates binding activity up to 5)”.

Turning to `C=CC(=O)N1CCN(c2c(NC(C)=O)nc3cc(-c4c(O)cccc4F)c(C)cn23)CC1` [Compound 24, N-(3-(40 acryloylpiperazin-1-yl)-7-(2-fluoro-6-hydroxyphenyl)-6-methylimidazo[1,2-a]pyridin-2-yl)acetamide], the Binding % entry is on record as “+ (+ indicates binding activity up to 5)”.
